Data: patent US20250171484A1, “METHOD FOR PRODUCING DISACCHARIDE USING BETA-GLUCOSIDASE AND COFACTOR THEREOF AND COMPOSITION FOR INDUCING ENZYME PRODUCTION OF STRAIN OF GENUS TRICHODERMA COMPRISING PRODUCED DISACCHARIDE” (CJ CheilJedang Corporation, priority 2021, published 2025)

Tested on: β-glucosidase (SEQ ID NO: 1)
Assay: Disaccharide production from glucose by beta-glucosidase with added divalent metal ion
Assay type: biochemical, Trichoderma reesei
Details: for Concentration (g/L) Cellobiose / Concentration (g/L) Gentiobiose / Concentration (g/L) Isomaltose / Concentration (g/L) Maltose / Concentration (g/L) Sophorose / Concentration (g/L) Trehalose / Concentration (g/L) Total: 1 mM ion, 60° C.; for Concentration (g/L) Total: total equals gentiobiose + sophorose; for Increase/decrease rate (%) Gentiobiose / Increase/decrease rate (%) Sophorose / Increase/decrease rate (%) Total: versus no ion added
Description: Glucose powder with a purity of 95% or more (hydrous crystalline glucose, Daejung Chemicals & Metals) was dissolved using steam to prepare 40 kg of a glucose solution with a concentration of 71% w/w. 0.3 kg of β-glucosidase (SEQ ID NO: 1) was added at a concentration of 1,650 U/ml to the prepared glucose solution, allowed to stand at 60° C. for 7 days to 21 days to prepare a composition comprising disaccharides (Treated Glucose Syrup, TGS). 0.3 kg of β-glucosidase (same as in Example 1) was added to the glucose solution of Example 1 at a concentration of 1,650 U/ml, and 1 mM of divalent ions [manganese ion (Mn^2+), magnesium ion (Mg^2+), zinc ion (Zn^2+), and copper ion (Cu^2+) each] was further added thereto, and allowed to stand at 60° C. for 7 days to 21 days to prepare a composition containing disaccharides. In the compositions prepared in Examples 1 and 2, the production concentration (g/L) and increase/decrease rate (%) of the disaccharides, i.e. trehalose, isomaltose, maltose, cellobiose, gentiobiose, and sophorose were measured, and the results are shown in Table 1 and Table 2 below. The production concentration was analyzed using a Bio-LC system (Dionex ICS-3000, Sunnyvale, CA, United States) equipped with an electrochemical detector and a CarboPac PAI column.

Row | Structure (SMILES) | Concentration (g/L) Cellobiose (standing period 7 days) [g/L] | Concentration (g/L) Gentiobiose (standing period 7 days) [g/L] | Concentration (g/L) Isomaltose (standing period 7 days) [g/L] | Concentration (g/L) Maltose (standing period 7 days) [g/L] | Concentration (g/L) Sophorose (standing period 7 days) [g/L] | Concentration (g/L) Trehalose (standing period 7 days) [g/L] | Concentration (g/L) Total (standing period 7 days) [g/L] | Increase/decrease rate (%) Gentiobiose (standing period 7 days) [%] | Increase/decrease rate (%) Sophorose (standing period 7 days) [%] | Increase/decrease rate (%) Total (standing period 7 days) [%] | Concentration (g/L) Cellobiose (standing period 14 days) [g/L] | Concentration (g/L) Gentiobiose (standing period 14 days) [g/L] | Concentration (g/L) Isomaltose (standing period 14 days) [g/L] | Concentration (g/L) Maltose (standing period 14 days) [g/L] | Concentration (g/L) Sophorose (standing period 14 days) [g/L] | Concentration (g/L) Trehalose (standing period 14 days) [g/L] | Concentration (g/L) Total (standing period 14 days) [g/L] | Increase/decrease rate (%) Gentiobiose (standing period 14 days) [%] | Increase/decrease rate (%) Sophorose (standing period 14 days) [%] | Increase/decrease rate (%) Total (standing period 14 days) [%] | further results
1 | [Zn+2] [Zn^2+, zinc ion (Zn^2+)] | 14.8 | 69.9 | 7.3 | 15.8 | 12.6 | 22.2 | 82.5 | 19.7 | 82.8 | 26.3 | 14.9 | 81 | 9.8 | 14.3 | 16.4 | 14.3 | 97.3 | 14.7 | 28.4 | 16.8 | Concentration (g/L) Cellobiose (standing period 21 days): 15 g/L; Concentration (g/L) Gentiobiose (standing period 21 days): 92 g/L; Concentration (g/L) Isomaltose (standing period 21 days): 12.5 g/L; Concentration (g/L) Maltose (standing period 21 days): 15.2 g/L; Concentration (g/L) Sophorose (standing period 21 days): 23.4 g/L; Concentration (g/L) Trehalose (standing period 21 days): 14.5 g/L; Concentration (g/L) Total (standing period 21 days): 115.4 g/L; Increase/decrease rate (%) Gentiobiose (standing period 21 days): 11.3%; Increase/decrease rate (%) Sophorose (standing period 21 days): 47.1%; Increase/decrease rate (%) Total (standing period 21 days): 17%
2 | [Mn+2] [Mn^2+, manganese ion (Mn^2+)] | 14.5 | 69.5 | 8.6 | 16.8 | 11.6 | 21.7 | 81.1 | 18.9 | 67.8 | 24.1 | 15.4 | 78 | 12.4 | 16.1 | 16.5 | 14.6 | 94.5 | 10.5 | 29.2 | 13.4 | Concentration (g/L) Cellobiose (standing period 21 days): 15.5 g/L; Concentration (g/L) Gentiobiose (standing period 21 days): 86.5 g/L; Concentration (g/L) Isomaltose (standing period 21 days): 15.7 g/L; Concentration (g/L) Maltose (standing period 21 days): 17.1 g/L; Concentration (g/L) Sophorose (standing period 21 days): 23.6 g/L; Concentration (g/L) Trehalose (standing period 21 days): 14.1 g/L; Concentration (g/L) Total (standing period 21 days): 110.2 g/L; Increase/decrease rate (%) Gentiobiose (standing period 21 days): 4.6%; Increase/decrease rate (%) Sophorose (standing period 21 days): 48.7%; Increase/decrease rate (%) Total (standing period 21 days): 11.7%
3 | [Cu+2] [Cu^2+, copper ion (Cu^2+)] | 15.1 | 71.7 | 8 | 18.7 | 13.3 | 19.4 | 85 | 22.8 | 92.2 | 30.1 | 15.2 | 82.1 | 10.3 | 15.9 | 17 | 12.6 | 99.1 | 16.3 | 33.5 | 18.9 | Concentration (g/L) Cellobiose (standing period 21 days): 15.5 g/L; Concentration (g/L) Gentiobiose (standing period 21 days): 92.4 g/L; Concentration (g/L) Isomaltose (standing period 21 days): 12.4 g/L; Concentration (g/L) Maltose (standing period 21 days): 16.8 g/L; Concentration (g/L) Sophorose (standing period 21 days): 24.3 g/L; Concentration (g/L) Trehalose (standing period 21 days): 13 g/L; Concentration (g/L) Total (standing period 21 days): 116.7 g/L; Increase/decrease rate (%) Gentiobiose (standing period 21 days): 11.7%; Increase/decrease rate (%) Sophorose (standing period 21 days): 53.0%; Increase/decrease rate (%) Total (standing period 21 days): 18.4%
4 | [Mg+2] [Mg^2+, magnesium ion (Mg^2+)] | 13.1 | 64.3 | 6.7 | 13.7 | 10.8 | 21.1 | 75.1 | 10 | 56.8 | 15 | 15.6 | 69.4 | 10.6 | 14.6 | 17.4 | 15.3 | 86.8 | −1.6 | 36.5 | 4.2 | Concentration (g/L) Cellobiose (standing period 21 days): 15.4 g/L; Concentration (g/L) Gentiobiose (standing period 21 days): 74.6 g/L; Concentration (g/L) Isomaltose (standing period 21 days): 13.2 g/L; Concentration (g/L) Maltose (standing period 21 days): 15.4 g/L; Concentration (g/L) Sophorose (standing period 21 days): 23.1 g/L; Concentration (g/L) Trehalose (standing period 21 days): 14.8 g/L; Concentration (g/L) Total (standing period 21 days): 97.7 g/L; Increase/decrease rate (%) Gentiobiose (standing period 21 days): −9.8%; Increase/decrease rate (%) Sophorose (standing period 21 days): 45.3%; Increase/decrease rate (%) Total (standing period 21 days): −0.9%
